Consider three molecules from patent US9045517B2, “Glycosylated aminocoumarins and methods of preparing and uses of same” (University College London, priority 2010, dated 2015).

In brackets after ≈: the same amount, converted by molar mass.

Series [1] concerns A2780 (ovarian cancer). Nature of the series: MTT anti-proliferative assay, A2780. Format: cell-based. The conditions noted are these: Homo sapiens, A2780 cells, 24 h continuous exposure. The method, then:
(§1) The cell number is estimated colorimetrically based on the transformation of the yellow MTT reagent (3-(4,5-Dimethylthiazol-2-yl)-2,5-diphenyltetrazolium bromide) to a purple formazan dye by mitochondrial enzymes.
(§2) Human cell lines derived from ovarian cancer (A2780, ECACC 93112519), lung cancer (A549, ATCC CCL-185), breast cancer (MCF7, ATCC HTB-22), pancreatic cancer (MiaPaCa2, ATCC CRL-1420) and brain cancer (U87MG, ATCC HTB-14), were obtained from the European Collection of Cell Cultures (ECACC, Salisbury, UK). The A2780, A549, MCF7 and MiaPaCa2 cells were grown in Dulbecco's Modified Eagle Medium (DMEM) supplemented with 10% fetal bovine serum (Biosera, UK), 1% L-glutamine and 1% non-essential aminoacids (Gibco, Invitrogen, USA). U87MG cells were grown in Minimal essential medium supplemented with 10% fetal bovine serum (Biosera, UK), 1% L-glutamine, 1% non-essential aminoacids and 1% Sodium piruvate (Gibco, Invitrogen, USA). Cells were grown in a 5% CO2, 95% humidity incubator. […] The compounds were dissolved in methanol at a maximum concentration of 20 mM, and serial decimal dilutions were prepared in methanol. For each compound and each concentration, 5 μl of the methanol solution were added over the cells, growing in 100 μl of cell culture medium per well (n=6). After 24 h of continuous drug exposure, the growth inhibition was determined using the MTT assay (Lancaster Synthesis Ltd, UK). The amount of dye was quantified spectrophotometrically as absorbance at λ=570 nm (ELx808, Bio-Tek Instruments, Inc.). The IC50 values were calculated by a dose-response analysis using the Origin 6.0® software.

Series [2] concerns U87MG (brain cancer). Nature of the series: MTT anti-proliferative assay, U87MG. Format: cell-based. The settings on record: Homo sapiens, U-87 MG, U87MG cells, 24 h continuous exposure. The method, then: as §1, §2
Series [3] deals with MiaPaCa2 (pancreatic cancer). The experiment in a line: MTT anti-proliferative assay, MiaPaCa2. Format: cell-based. The settings on record: Homo sapiens, MIA PaCa-2, MiaPaCa2 cells, 24 h continuous exposure. The method, then: as §1, §2
Series [4] deals with T1, DNA Gyrase (Escherichia coli, UniProt P0AES6).
T1 construct: purchased
The experiment in a line: DNA gyrase supercoiling assay (relaxed pBR322, agarose gel). Format: biochemical. The settings on record: DNA Gyrase 1U, relaxed pBR322, 37 C, 1 hr. The method, then:
DNA Gyrase (1U) is incubated with relaxed pBR322 (0.5 μg) in a reaction volume of 30 μL at 37 °C for 1 hr in TRIS-HCl (35 mM, pH 7.5), KCl (24 Mm), MgCl2 (4 mM), DTT (2 mM), spermidine (1.8 mM), ATP (1 mM), glycerol (6.5%, w/v), albumin (0.1 mg/mL).
After incubation the mixture was deproteinized with equal volumes of chloroformisoamyl alcohol (24:1) and the end point was determined by separating relaxed and supertwisted plasmid pBR322DNA by agarose gel electrophoresis (0.8% agarose with TBE buffer), running without Ethidium Bromide. After the run the gel is soaked, in tank buffer containing Ethidium Bromide, for 1 and half hours.

In series [5] the test system is A549 (lung cancer). The experiment in a line: MTT anti-proliferative assay, A549. Format: cell-based. The settings on record: Homo sapiens, A549 cells, 24 h continuous exposure. The method, then: as §1, §2
Series [6] deals with MCF7 (breast cancer). The experiment in a line: MTT anti-proliferative assay, MCF7. Format: cell-based. The conditions noted are these: Homo sapiens, MCF7 cells, 24 h continuous exposure. The method, then: as §1, §2
The subject of series [7] is Escherichia coli. The experiment in a line: MIC by micro-broth dilution against Escherichia coli, with or without PEI. Format: cell-based. The method, then: Microtitre plates were incubated aerobically at 37° C. and read after one and four days. The concentration range tested was 128 to 0.5 μg/ml. A cell permeabilising agent, polyethylenimine (PEI) was used to assess the influence of cell membrane (and associated structures) as a barrier to novobiocin entry into the cell. Isopropyl β-D-1-thiogalactopyranoside (100 μM) was used to induce β-glycosidase and β-galactosidase expression from plasmids pSsβG and pBCSK, respectively. These enzymes can release the native drugs from the conjugates.

The nature of series [8]: Toxicity relative to precursor (no method given). The conditions noted are these: versus novobiocin.

For the molecule `CO[C@@H]1C(OC(N)=O)C(O)[C@H](Oc2ccc3c(O[C@@H]4O[C@H](CO)[C@H](O)[C@H](O)[C@H]4O)c(NC(=O)c4ccc(O)c(CC=C(C)C)c4)c(=O)oc3c2C)OC1(C)C` (some centres unmarked) [Galactosyl_Novobiocin], the half-inhibitory concentration (IC50) in series [1] was 100 µM; in series [2], 30 µM; in series [3], 30 µM; in series [5] it was 100 µM; in series [6], 40 µM. Further, in series [4], the “MIC in DNA gyrase assay” value stood at 3 µM (≈ 2.32 µg/mL). Besides, the “re-growth on prolonged incubation at concentrations above the MIC” value in series [7] (prolonged incubation up to 4 days) is recorded as “did not lead to re-growth”.
`CO[C@@H]1C(OC(N)=O)C(O)[C@H](Oc2ccc3c(O[C@@H]4OC(CO)[C@@H](O)C(O)C4O)c(NC(=O)c4ccc(O)c(CC=C(C)C)c4)c(=O)oc3c2C)OC1(C)C` (stereo partly drawn) [Glucosyl_Novobiocin, β-4′-O-glucosyl Novobiocin]: the IC50 is 130 µM in series [1]; 20 µM in series [2]; 10 µM in series [3]; 60 µM in series [5]; 10 µM in series [6]. In series [4], the “MIC in DNA gyrase assay” value came out at 3 µM (≈ 2.32 µg/mL). For the same molecule, the “toxicity compared with precursor” value in series [8] is on record as “less toxic than its precursor”.
As to `CO[C@@H]1[C@@H](OC(N)=O)[C@@H](O)[C@H](Oc2ccc3c(O)c(NC(=O)c4ccc(O)c(CC=C(C)C)c4)c(=O)oc3c2C)OC1(C)C` [Novobiocin, reference compound], the IC50 in series [1] was 190 µM; in series [2], 580 µM; in series [3], 320 µM; in series [5], over 1000 µM; in series [6] it was over 1000 µM. Besides, in series [7] (with polyethylenimine (PEI), independent of β-galactosidase), the “increased activity against Escherichia coli in the presence of PEI” value was 16-32 fold.
